Source: ChEMBL document CHEMBL1201862, “PubChem BioAssay data set” (2004)
Several values for one entry are separate records, joined by “and”; a condition that tells them apart may be missing. Equal values may be shown once. Where a name gives a salt, the structure may show the parent alone. Activity calls are given as the source filed them.

Experiments:
[1] = HeLa cell cytotoxicity, dose response, cytotoxicity control for MgcRacGAP inhibitor project (AID 624300); format: functional
[2] = biological target: T1, Rac GTPase-activating protein 1 (Homo sapiens, UniProt Q9H0H5); experiment: MgcRacGAP GTPase-activating activity inhibitors, confirmation, biochemical, ADP Hunter fluorescence, primary and confirmatory (AID 624330); format: functional
T1 sequence (Q9H0H5 whole entry): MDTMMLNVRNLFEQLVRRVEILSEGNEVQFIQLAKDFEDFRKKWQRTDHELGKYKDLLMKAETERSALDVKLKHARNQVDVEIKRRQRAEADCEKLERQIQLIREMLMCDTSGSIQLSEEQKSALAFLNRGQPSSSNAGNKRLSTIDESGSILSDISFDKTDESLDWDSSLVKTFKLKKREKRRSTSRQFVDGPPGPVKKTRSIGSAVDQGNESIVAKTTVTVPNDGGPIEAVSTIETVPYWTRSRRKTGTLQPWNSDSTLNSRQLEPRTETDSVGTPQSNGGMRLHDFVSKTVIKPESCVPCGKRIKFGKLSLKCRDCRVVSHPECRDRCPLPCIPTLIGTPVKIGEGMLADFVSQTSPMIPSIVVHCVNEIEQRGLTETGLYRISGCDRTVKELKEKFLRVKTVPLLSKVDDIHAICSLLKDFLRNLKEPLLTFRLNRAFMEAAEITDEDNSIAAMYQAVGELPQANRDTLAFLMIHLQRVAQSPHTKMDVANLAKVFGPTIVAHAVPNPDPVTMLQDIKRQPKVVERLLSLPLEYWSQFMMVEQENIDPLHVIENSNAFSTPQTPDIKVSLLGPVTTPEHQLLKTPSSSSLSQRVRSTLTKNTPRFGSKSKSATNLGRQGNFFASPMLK

[3] = biological target: T2, Corticotropin-releasing factor receptor 2/Corticotropin-releasing factor-binding protein (Homo sapiens, UniProt P24387+Q13324); experiment: Dose Response confirmation of uHTS hits for small molecule antagonists of the CRF-binding protein and CRF-R2 receptor complex.; format: functional; conditions: read-out: IC50_Mean
T2 sequence (Q13324 whole entry): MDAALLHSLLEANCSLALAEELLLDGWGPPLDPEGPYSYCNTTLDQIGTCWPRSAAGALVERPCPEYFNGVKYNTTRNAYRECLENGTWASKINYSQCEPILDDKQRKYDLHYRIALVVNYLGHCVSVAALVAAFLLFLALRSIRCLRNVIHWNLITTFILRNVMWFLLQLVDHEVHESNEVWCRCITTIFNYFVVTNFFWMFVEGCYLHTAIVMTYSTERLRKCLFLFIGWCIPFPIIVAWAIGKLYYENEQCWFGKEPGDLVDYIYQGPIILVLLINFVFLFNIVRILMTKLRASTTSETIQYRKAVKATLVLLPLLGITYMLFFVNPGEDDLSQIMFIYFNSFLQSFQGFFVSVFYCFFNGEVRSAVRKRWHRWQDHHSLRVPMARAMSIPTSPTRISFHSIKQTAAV
T2 sequence (P24387 whole entry): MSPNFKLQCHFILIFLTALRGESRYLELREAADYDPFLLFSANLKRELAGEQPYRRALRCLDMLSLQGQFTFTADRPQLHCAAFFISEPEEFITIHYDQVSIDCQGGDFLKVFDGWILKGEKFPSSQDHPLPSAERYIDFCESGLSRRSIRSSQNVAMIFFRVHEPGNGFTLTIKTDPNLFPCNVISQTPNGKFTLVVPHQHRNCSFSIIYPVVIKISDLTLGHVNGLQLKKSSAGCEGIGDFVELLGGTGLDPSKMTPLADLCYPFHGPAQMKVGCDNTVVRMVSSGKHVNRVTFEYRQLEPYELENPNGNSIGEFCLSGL

[4] = biological target: T2, Corticotropin-releasing factor receptor 2/Corticotropin-releasing factor-binding protein; experiment: activators of CRF receptor 2 with binding protein – uHTS hits, confirmation (AID 602473); format: functional; conditions: read-out: EC50_Mean
[5] = CRF-BP/CRF-R2 complex antagonists, dose response, cell-based, uHTS hits, 384-well (AID 651639); format: functional, Homo sapiens; conditions: read-out: IC50_Mean
Mu-type opioid receptor = Mu-type opioid receptor (Homo sapiens, UniProt P35372); format: functional, cell-based;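 note: U2OS cells with beta-arrestin recruitment to OPRM1 by beta-gal complementation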
Chain of Mu-type opioid receptor (P35372 whole entry): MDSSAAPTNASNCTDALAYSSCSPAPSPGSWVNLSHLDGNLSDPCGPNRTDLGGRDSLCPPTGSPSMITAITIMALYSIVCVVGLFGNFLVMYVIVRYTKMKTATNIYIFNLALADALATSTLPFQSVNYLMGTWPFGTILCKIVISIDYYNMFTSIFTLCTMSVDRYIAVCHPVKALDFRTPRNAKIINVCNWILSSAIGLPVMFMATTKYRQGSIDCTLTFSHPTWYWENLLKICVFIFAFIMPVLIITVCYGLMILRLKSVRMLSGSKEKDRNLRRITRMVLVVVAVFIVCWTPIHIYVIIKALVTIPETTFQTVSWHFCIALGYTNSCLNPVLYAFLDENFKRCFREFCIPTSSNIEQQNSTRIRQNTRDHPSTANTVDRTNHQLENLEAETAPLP

[6] = biological target: 5-hydroxytryptamine receptor 2A (Mus musculus, UniProt P35363); format: functional, cell-based;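 note: CHO-K1 cells with tagged receptor and beta-arrestin; agonist potency measured as compound-induced activation of the receptor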
Chain of 5-hydroxytryptamine receptor 2A (P35363 whole entry): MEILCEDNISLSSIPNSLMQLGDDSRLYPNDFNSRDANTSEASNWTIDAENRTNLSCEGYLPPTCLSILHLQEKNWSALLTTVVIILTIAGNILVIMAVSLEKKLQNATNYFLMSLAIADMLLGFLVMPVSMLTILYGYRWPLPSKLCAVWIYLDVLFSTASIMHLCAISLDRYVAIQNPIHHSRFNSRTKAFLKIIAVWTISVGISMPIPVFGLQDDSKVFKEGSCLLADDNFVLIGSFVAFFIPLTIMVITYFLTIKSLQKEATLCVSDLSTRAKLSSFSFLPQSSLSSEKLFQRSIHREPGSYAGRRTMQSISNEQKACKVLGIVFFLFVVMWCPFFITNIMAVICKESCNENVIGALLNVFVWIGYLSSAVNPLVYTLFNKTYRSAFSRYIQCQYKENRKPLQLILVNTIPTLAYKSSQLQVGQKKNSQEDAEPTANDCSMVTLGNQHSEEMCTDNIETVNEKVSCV

cells [7] = format: functional, cell-based
[8] = biological target: T3, Trace amine-associated receptor 1 (Homo sapiens, UniProt Q96RJ0); experiment: Fluorescence-based cell-based high throughput dose response assay to identify agonists of the human trace amine associated receptor 1 (TAAR1).; format: functional
T3 sequence (Q96RJ0 whole entry): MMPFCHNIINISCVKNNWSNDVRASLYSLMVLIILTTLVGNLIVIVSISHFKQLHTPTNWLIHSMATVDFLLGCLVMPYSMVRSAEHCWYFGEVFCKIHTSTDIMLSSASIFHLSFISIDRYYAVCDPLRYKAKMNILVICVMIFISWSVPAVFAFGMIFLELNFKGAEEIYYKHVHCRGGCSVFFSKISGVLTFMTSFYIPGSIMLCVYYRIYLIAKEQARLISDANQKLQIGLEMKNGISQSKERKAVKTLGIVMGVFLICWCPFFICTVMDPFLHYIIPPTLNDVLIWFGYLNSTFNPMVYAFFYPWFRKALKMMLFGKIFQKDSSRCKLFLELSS

[9] = biological target: T3, Trace amine-associated receptor 1; experiment: Counterscreen for agonists of the human trace amine associated receptor 1 (hTAAR1): Fluorescence-based cell-based high throughput dose response assay to identify hTAAR1 agonist that also desensitize TAAR1 receptor response.; format: functional
cells [10] = format: functional, cell-based; remark: listed apart in the source
[11] = NIH-3T3 fibroblast cytotoxicity, dose response, cytotoxicity control, cell-based, fluorescence, Alamar Blue, secondary assay (AID 2327); format: functional;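 note: NIH-3T3 mouse fibroblasts cultured with fluconazole at 8 µg/mL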
Aminopeptidase N = biological target: T4, Aminopeptidase N (Plasmodium falciparum FcB1/Columbia, UniProt O96935); experiment: P. falciparum M1AAP inhibitors, biochemical, fluorogenic H-Leu-NHMec substrate, 1536-well (AID 1445); set-up: species or system Plasmodium falciparum 3D7, 3D7
T4 sequence (O96935 whole entry): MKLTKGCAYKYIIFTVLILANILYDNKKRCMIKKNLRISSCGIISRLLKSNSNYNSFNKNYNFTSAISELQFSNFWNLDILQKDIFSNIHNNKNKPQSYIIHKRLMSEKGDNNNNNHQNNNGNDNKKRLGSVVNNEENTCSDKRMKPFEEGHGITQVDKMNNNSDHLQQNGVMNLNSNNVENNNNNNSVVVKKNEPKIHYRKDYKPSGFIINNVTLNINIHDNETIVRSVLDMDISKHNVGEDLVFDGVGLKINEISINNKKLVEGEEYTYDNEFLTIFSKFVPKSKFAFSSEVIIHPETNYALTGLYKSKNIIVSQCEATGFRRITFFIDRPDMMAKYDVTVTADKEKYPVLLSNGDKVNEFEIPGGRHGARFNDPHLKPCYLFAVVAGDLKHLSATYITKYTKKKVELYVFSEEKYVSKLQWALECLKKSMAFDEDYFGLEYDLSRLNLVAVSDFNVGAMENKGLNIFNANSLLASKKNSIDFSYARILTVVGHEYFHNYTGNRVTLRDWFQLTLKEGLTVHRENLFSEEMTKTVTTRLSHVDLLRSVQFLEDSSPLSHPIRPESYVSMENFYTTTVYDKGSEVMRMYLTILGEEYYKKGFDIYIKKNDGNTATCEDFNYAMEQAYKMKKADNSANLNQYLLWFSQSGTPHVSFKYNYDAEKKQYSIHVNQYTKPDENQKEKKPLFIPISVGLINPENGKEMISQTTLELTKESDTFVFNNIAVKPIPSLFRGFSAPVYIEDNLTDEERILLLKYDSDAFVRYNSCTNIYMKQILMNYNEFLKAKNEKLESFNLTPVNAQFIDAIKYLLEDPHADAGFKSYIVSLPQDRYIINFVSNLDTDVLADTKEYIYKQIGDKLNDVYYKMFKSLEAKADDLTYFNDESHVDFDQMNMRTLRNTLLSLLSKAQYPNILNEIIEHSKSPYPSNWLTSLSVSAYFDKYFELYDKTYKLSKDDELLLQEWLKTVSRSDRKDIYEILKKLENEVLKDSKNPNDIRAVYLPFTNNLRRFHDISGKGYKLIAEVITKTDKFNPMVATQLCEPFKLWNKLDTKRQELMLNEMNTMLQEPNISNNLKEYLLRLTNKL

cells [12] = format: functional, cell-based; remark: listed apart in the source
[13] = C. albicans growth with fluconazole, confirmation, fluorescence, retest (AID 2467); format: functional, cell-based
cells [14] = format: functional, cell-based; remark: listed apart in the source
Albumin = Albumin (Bos taurus, UniProt P02769); experiment: Counterscreen for inhibitors of T-cell receptor (TCR)-CD3 interaction: Fluorescence-based biochemical high throughput dose response assay to identify inhibitors of T-cell receptor (TCR)-CD3 interaction using a TAMRA-labeled BSA probe.; format: functional
Chain of Albumin (P02769 whole entry, the tested form may be a part): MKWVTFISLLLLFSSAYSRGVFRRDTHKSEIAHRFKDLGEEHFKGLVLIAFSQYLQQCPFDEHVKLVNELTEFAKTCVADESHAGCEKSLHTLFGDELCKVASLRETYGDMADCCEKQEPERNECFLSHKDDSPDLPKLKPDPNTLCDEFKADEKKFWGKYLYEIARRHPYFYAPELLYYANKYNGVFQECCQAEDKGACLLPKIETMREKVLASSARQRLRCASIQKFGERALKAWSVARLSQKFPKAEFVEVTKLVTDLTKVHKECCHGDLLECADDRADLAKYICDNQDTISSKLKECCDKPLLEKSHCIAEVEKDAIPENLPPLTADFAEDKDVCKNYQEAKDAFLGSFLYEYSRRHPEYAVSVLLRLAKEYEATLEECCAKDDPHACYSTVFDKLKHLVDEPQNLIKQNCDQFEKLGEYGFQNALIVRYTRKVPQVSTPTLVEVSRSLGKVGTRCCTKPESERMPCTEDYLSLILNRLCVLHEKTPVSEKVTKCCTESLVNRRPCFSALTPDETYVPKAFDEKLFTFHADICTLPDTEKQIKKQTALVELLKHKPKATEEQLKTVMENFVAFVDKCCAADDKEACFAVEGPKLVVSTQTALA

[15] = biological target: Disintegrin and metalloproteinase domain-containing protein 17 (Homo sapiens, UniProt P78536); experiment: exosite inhibitors of ADAM17, dose response, biochemical (AID 743260)
Chain of Disintegrin and metalloproteinase domain-containing protein 17 (P78536 whole entry, the tested form may be a part): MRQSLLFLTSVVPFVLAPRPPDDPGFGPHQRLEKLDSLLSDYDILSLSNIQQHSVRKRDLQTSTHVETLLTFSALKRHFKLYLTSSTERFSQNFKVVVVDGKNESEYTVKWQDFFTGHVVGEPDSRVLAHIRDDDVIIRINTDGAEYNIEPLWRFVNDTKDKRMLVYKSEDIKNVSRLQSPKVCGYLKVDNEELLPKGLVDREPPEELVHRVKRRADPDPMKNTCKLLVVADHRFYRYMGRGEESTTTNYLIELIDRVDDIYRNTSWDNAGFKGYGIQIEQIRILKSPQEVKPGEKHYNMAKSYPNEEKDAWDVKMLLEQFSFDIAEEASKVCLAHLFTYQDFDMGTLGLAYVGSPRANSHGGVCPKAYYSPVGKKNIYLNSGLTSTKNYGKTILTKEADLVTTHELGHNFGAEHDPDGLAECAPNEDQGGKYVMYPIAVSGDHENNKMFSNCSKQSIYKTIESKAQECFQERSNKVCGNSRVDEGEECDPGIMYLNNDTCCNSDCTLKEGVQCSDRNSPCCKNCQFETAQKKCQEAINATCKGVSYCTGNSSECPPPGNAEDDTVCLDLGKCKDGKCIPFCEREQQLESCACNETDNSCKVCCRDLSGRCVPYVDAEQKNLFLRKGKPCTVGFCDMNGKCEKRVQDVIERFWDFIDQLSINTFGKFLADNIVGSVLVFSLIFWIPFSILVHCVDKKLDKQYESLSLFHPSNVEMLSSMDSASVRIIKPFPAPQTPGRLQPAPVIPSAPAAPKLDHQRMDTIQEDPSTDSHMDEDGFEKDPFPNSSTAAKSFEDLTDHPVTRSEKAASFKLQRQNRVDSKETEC

[16] = ADAM10 protease inhibitors, dose response, selectivity assay for ADAM17 exosite inhibitor project, biochemical, FRET peptide substrate, recombinant human ADAM10 (AID 743259);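 note: ADAM10 enzyme cleaving a FRET peptide substrate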
[17] = Luminescence Cell-Based Dose Response HTS to Identify Activators of Luciferase Translation or Activity in H4 […] Cells. [Related pubchem assays: 1829 (Project Summary), 1814 (Primary HTS)]; format: functional
H4 = experiment: Luminescence Cell-Based Dose Response HTS to Identify Activators of 5'UTR Stem-Loop Driven Prion Protein mRNA Translation in H4 Neuroglioblastoma Cells. [Related pubchem assays: 1829 (Project Summary), 1814 (Primary HTS)]; format: functional; conditions: Homo sapiens
Large T antigen = Large T antigen (Simian virus 40, UniProt P03070); format: functional, Betapolyomavirus macacae;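 note: Confirmatory-stage PubChem screen for compounds that inhibit SV40 T antigen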
Chain of Large T antigen (P03070 whole entry): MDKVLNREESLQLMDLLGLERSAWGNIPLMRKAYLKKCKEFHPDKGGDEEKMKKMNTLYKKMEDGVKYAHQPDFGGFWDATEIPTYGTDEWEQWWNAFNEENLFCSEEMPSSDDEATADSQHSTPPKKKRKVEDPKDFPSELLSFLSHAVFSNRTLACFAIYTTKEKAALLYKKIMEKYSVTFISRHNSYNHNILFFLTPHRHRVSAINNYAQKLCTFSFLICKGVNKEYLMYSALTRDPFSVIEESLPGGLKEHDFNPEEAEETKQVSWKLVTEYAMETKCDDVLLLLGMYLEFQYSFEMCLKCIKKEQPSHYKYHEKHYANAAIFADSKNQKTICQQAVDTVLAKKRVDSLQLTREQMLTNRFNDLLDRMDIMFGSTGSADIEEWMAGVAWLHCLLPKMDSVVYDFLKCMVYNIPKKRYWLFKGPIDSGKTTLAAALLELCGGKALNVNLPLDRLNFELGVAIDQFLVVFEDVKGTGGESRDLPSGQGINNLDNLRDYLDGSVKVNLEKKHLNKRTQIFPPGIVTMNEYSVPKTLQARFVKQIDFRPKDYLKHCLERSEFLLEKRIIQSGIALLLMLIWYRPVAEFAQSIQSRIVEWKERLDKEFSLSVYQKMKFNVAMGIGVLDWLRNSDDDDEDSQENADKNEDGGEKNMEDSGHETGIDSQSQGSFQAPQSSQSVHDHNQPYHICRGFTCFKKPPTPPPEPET

[18] = Luminescence-based cell-based high throughput dose response assay to identify activators of the DAF-12 from the parasite S. stercoralis (ssDAF-12).; format: functional
[19] = biological target: T5, Oxysterols receptor LXR-beta (Homo sapiens, UniProt P55055); experiment: LXR agonists, Gal4 luciferase reporter, dose response, counter-screen for ssDAF-12 agonist project, cell-based, luminescence, HEK293, S. stercoralis campaign (AID 720737); format: functional; conditions: read-out: IC50 (the source's name)
T5 sequence (P55055 whole entry): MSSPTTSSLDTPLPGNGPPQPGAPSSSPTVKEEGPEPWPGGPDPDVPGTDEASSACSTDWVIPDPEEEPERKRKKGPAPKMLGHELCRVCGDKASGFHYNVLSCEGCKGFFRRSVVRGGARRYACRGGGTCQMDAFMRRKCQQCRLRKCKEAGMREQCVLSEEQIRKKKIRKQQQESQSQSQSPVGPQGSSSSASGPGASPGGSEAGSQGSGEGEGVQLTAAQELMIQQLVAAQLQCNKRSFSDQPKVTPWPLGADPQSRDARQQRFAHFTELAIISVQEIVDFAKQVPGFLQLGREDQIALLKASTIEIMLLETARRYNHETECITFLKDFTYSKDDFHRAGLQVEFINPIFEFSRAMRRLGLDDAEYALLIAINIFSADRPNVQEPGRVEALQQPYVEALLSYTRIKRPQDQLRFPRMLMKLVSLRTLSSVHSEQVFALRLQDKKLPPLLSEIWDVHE

CCN1C(=O)/C(=C2/C=Cc3cc(C)ccc3N2CC)N(C)C1=S
CC50 [1]: 100 µM (active)
IC50 [2]: 60.4 µM (active)

COc1ccccc1-c1ccc(SCc2cccc(F)c2)nn1
IC50 [3]: < 0.368 µM (active)
EC50 [4]: > 53 µM (inactive)
IC50 [5]: > 20 µM (inactive)

CC(=O)NC(Cc1cccc(C)c1)C(=O)NC1CCN(c2ncccc2[N+](=O)[O-])CC1 (stereo not given)
IC50 [3]: 5.13 µM (active)
EC50 [4]: > 53 µM (inactive)
IC50 [5]: 18.8 µM (active)

O=C(c1ccco1)N1CCN(CCCCN2C(=O)c3ccccc3C2=O)CC1
EC50 (Mu-type opioid receptor): 92.5 µM (inactive)
EC50 [6]: 76.1 µM (inactive)

COc1cc(C(C)=O)ccc1OCC(O)CN1CCN(c2ccccn2)CC1 (stereo not given)
EC50 (Mu-type opioid receptor): 92.5 µM (inactive)
EC50 [6]: 0.321 µM (active)

O=C(NCCc1ccccc1)c1nc2nc(-c3cccs3)cc(C(F)(F)F)n2n1
IC50 (cells [7]): 24.1 µM (inactive)
EC50 [8]: 346 nM (active)
IC50 [9]: 1.91 µM (active)
EC50 (cells [10]): > 29.9 µM (inactive)

O=C(N/N=C/c1cc(Br)ccc1O)c1cccc(N2CCCC2=O)c1
EC50 [11]: 15.4 µM (inconclusive)
IC50 (Aminopeptidase N): 38.3 µM (active)
EC50 (cells [12]): 7.74 µM (active)
EC50 [13]: 2.33 µM (active)
EC50 (cells [14]): > 350 µM (not active)
IC50 (Albumin): > 94.1 µM (inactive)

COC(=O)c1ccc(CN2C(=O)C(C)N(C(=O)c3c(F)cccc3F)c3ccccc32)cc1 (stereo not given)
IC50 [3]: < 0.368 µM (active)
EC50 [4]: > 53 µM (inactive)
IC50 [5]: 17 µM (active)
IC50 [15]: > 69.5 µM (inactive)
IC50 [16]: > 69.5 µM (inactive)

CN=C(S)NNC(=O)c1oc2nc(-c3ccccc3)cc(-c3ccco3)c2c1N
IC50 (Albumin): > 94.1 µM (inactive)

CC(N)Cc1ccc(O)cc1 (stereo not given) [HYDROXYAMPHETAMINE HYDROBROMIDE]
IC50 (cells [7]): > 29.9 µM (inactive)
EC50 [8]: 1.71 µM (active) and 1.18 µM (active)
IC50 [9]: 11.8 µM (inactive) and 5.84 µM (active)
EC50 (cells [10]): > 29.9 µM (inactive)

COc1cc(C2c3cc4c(cc3OC(NCCc3ccccc3)C2C)OCO4)cc(OC)c1OC (stereo not given)
IC50 (cells [7]): > 29.9 µM (inactive)
EC50 [8]: 23.9 nM (active)
IC50 [9]: 0.261 µM (active)
EC50 (cells [10]): > 29.9 µM (inactive)

CCOc1cc(/C=N/NC(=O)Nc2ccccc2)ccc1O
EC50 [17]: 16.6 µM (active)
EC50 (H4): 1.94 µM (active)
IC50 (Large T antigen): > 100 µM (active)
CC50 [1]: 100 µM (active)
IC50 [2]: 32.5 µM (active)
IC50 [18]: > 67.6 µM (inactive)
EC50 [19]: > 67.6 µM (inactive)

Clc1ccc(CN2CCN(c3ncccn3)CC2)c(Cl)c1
EC50 (Mu-type opioid receptor): 92.5 µM (inactive)
EC50 [6]: 1.29 µM (active)
